# In publication PMC12136037, “Type II kinase inhibitors that target Parkinson’s disease–associated LRRK2” (Science Advances, 2025):
# Where “and” joins values, the source holds several entries; their conditions need not be identical. Equal entries are not always repeated.
# Columns and labels:
# [1] = target: T1, LRRK2^RCKW (Homo sapiens, UniProt Q5S007); experiment: Biochemical LRRK2 activity assay (PhosphoSense, AssayQuant SOX peptide AQT0615); conditions: for IC50: LRRK2^RCKW kinase activity, in vitro; for normalized response (LRRK2 activity): normalized to 0% (no kinase) and 100% (no inhibitor) control, two singlicate columns per compound
# T1 construct: LRRK2 R1327 to E2527; His6-Z-tag (TEV cleavable) (N, cleaved yes); host or cells: Sf9 insect cells (baculovirus)
# T1 sequence (Q5S007 1327-2527): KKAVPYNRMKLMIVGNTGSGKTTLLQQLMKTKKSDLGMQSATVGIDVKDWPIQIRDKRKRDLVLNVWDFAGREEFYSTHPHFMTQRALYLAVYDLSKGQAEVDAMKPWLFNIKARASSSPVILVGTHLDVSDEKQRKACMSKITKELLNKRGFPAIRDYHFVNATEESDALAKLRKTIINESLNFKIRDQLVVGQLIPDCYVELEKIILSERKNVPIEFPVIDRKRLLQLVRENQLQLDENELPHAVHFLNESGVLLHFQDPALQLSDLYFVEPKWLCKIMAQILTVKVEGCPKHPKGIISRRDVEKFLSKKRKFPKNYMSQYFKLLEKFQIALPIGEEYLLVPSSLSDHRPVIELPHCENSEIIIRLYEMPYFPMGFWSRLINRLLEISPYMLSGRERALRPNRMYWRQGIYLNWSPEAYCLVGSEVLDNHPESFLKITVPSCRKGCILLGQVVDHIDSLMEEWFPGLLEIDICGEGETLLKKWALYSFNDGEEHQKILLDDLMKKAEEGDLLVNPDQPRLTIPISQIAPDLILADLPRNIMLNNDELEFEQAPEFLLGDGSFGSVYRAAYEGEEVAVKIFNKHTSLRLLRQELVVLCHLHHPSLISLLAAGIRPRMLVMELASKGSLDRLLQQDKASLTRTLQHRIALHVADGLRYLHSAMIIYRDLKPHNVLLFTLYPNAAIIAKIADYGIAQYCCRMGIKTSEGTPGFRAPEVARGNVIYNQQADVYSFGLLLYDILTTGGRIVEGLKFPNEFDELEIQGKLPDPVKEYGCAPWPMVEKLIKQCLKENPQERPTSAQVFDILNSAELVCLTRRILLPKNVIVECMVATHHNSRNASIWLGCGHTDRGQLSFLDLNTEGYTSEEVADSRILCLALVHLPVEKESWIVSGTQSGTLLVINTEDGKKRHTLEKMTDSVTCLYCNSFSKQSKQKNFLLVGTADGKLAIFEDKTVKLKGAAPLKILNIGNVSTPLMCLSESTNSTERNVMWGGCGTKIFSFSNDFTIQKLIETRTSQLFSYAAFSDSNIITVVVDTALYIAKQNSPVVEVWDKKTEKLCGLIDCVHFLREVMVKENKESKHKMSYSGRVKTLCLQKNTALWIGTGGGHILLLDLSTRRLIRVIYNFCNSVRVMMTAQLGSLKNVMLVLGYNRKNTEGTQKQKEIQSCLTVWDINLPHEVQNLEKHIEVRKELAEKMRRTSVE
# Method in brief: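 Controls lacked protein and compound (0%) or compound only (100%). IC50 derived by nonlinear regression of normalized response versus log[inhibitor].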
# [2] = target: T2, ~100 representative kinases (Homo sapiens, UniProt P54762); experiment: DSF 100 kinase selectivity screen; type: binding; conditions: Protein EPHB1; average of three replicates;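 note: compound tested at 20 µM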
# T2 construct: Recombinant protein kinase domains with a concentration of 2 μM
# T2 sequence (P54762 18-984): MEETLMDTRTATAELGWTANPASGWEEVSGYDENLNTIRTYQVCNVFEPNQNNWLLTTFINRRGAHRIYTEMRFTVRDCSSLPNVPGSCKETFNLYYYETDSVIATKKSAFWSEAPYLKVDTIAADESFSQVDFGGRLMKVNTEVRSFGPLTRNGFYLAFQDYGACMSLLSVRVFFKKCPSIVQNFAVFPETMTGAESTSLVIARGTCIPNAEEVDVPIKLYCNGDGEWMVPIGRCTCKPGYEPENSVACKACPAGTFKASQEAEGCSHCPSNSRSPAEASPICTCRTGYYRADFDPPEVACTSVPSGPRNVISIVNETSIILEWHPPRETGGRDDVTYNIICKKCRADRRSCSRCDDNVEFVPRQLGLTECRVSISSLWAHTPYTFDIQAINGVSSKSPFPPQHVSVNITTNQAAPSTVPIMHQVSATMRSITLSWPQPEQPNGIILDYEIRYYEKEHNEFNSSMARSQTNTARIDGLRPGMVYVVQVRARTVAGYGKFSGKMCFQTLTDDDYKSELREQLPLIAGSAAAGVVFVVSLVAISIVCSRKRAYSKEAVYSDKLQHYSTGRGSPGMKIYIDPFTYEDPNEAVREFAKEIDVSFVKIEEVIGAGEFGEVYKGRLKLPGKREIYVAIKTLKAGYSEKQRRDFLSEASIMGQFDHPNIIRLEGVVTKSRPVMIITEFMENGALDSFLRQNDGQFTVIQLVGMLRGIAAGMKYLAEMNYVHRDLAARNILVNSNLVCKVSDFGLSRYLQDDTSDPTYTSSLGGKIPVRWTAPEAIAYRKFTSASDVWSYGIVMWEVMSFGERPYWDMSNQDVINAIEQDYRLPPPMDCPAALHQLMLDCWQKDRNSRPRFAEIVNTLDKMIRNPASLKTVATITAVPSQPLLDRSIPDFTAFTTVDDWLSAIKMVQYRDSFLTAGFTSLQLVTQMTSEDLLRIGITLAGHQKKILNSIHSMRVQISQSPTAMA
# Method in brief: (§1)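 Each kinase domain, at 2 μM, is mixed with 20 μM test compound and SYPRO Orange in Hepes (20 mM, pH 7.5) with 500 mM NaCl. Temperature is then raised at 3°C/min and fluorescence-monitored unfolding yields the melting temperature change, ΔTm in degrees Celsius.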
# [3] = target: T3, ~100 representative kinases (Homo sapiens, UniProt Q13557); experiment: DSF 100 kinase selectivity screen; type: binding; conditions: Protein CAMK2D; average of three replicates;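 note: compound tested at 20 µM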
# T3 construct: Recombinant protein kinase domains with a concentration of 2 μM
# T3 sequence (Q13557 whole entry, the tested form may be a part): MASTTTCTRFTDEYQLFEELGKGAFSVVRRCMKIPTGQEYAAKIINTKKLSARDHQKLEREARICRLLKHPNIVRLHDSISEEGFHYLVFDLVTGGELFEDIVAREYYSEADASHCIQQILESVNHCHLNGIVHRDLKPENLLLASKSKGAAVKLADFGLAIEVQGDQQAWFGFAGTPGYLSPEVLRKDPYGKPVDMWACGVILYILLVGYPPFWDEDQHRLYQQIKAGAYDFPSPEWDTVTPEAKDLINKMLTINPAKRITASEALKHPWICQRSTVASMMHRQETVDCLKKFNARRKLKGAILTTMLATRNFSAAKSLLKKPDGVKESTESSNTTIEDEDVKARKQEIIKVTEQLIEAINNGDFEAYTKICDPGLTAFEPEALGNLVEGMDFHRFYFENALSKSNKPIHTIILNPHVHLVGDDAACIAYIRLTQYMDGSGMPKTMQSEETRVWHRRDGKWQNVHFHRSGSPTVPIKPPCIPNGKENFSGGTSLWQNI
# Method in brief: as §1
Structure (SMILES),IC50 [1] [nM],normalized response (LRRK2 activity) ([1]; log[inhibitor(mol)] -4.82391),normalized response (LRRK2 activity) ([1]; log[inhibitor(mol)] -5.12494),normalized response (LRRK2 activity) ([1]; log[inhibitor(mol)] -5.60206),normalized response (LRRK2 activity) ([1]; log[inhibitor(mol)] -6.30103),normalized response (LRRK2 activity) ([1]; log[inhibitor(mol)] -6.90309),normalized response (LRRK2 activity) ([1]; log[inhibitor(mol)] -7.30103),normalized response (LRRK2 activity) ([1]; log[inhibitor(mol)] -7.60206),normalized response (LRRK2 activity) ([1]; log[inhibitor(mol)] -8.09691),normalized response (LRRK2 activity) ([1]; log[inhibitor(mol)] -8.61979),normalized response (LRRK2 activity) ([1]; log[inhibitor(mol)] -9.09691),normalized response (LRRK2 activity) ([1]; log[inhibitor(mol)] -9.39794),dTm [2] [K],dTm [3] [K]
O=C(Nc1ccccc1)C1(C(=O)Nc2cccc(-c3c[nH]c4ncnc(N5CCOCC5)c34)c2)CC1 [Compound 12],350 ± 25,0.1647% and -9.791%,-4.574% and -1.793%,1.386% and 6.849%,35.45% and 38.9177%,76.566% and 79.9356%,91.6032% and 94.9482%,99.2139% and 97.704%,99.3121% and 101.951%,104.222% and 110.035%,103.486% and 106.278%,106.585% and 109.47%,2.37,0.39
O=C(Nc1ccc(Cl)cc1)C1(C(=O)Nc2cccc(-c3c[nH]c4ncnc(N5CCOCC5)c34)c2)CC1 [Compound 13],717 ± 14,–,–,15.0853% and 13.379%,62.4187% and 38.0646%,95.7707% and 92.6957%,101.552% and 99.1095%,102.657% and 105.64%,106.745% and 99.576%,101.35% and 101.951%,104.075% and 108.101%,110.679% and 104.597%,5.42,1.12
Cc1ccc(NC(=O)C2(C(=O)Nc3cccc(-c4c[nH]c5ncnc(N6CCOCC6)c45)c3)CC2)cc1 [Compound 14],156 ± 33,–,-6.986% and -9.956%,21.8981% and 20.2655%,13.87% and 15.03%,58.2022% and 57.0299%,81.6541% and 110.82%,85.6497% and 54.8081%,91.8548% and 92.1679%,98.0477% and 97.5874%,93.5857% and 99.2323%,96.7834% and 110.495%,3.63,0.26
CCc1ccc(NC(=O)C2(C(=O)Nc3cccc(-c4c[nH]c5ncnc(N6CCOCC6)c45)c3)CC2)cc1 [Compound 15],960 ± 33,–,-0.2711% and -2.401%,22.7451% and 24.0892%,67.6419% and 69.4402%,95.7584% and 98.1889%,103.897% and 98.4037%,108.801% and 106.855%,103.13% and 100.705%,105.315% and 96.9982%,106.518% and 101.982%,107.174% and 104.775%,3.72,0.37
COc1ccc(NC(=O)C2(C(=O)Nc3cccc(-c4c[nH]c5ncnc(N6CCOCC6)c45)c3)CC2)cc1 [Compound 16],1100 ± 217,-5.114% and -9.8151%,0.6005% and -2.272%,29.0484% and 32.3505%,66.3591% and 78.0881%,96.3721% and 94.5984%,96.366% and 105.259%,97.2621% and 95.7829%,97.8759% and 91.3822%,98.0661% and 96.7588%,100.497% and 98.6001%,96.0714% and 99.3612%,0.79,-0.55
O=C(Nc1cccc(-c2c[nH]c3ncnc(N4CCOCC4)c23)c1)C1(C(=O)Nc2ccc(F)c(F)c2)CC1 [Compound 17],253 ± 33,-1.222% and -11.0979%,-9.447% and -10.6928%,0.9319% and 1.085%,26.1821% and 29.3798%,67.0342% and 72.3494%,85.8031% and 94.494%,98.3853% and 103.983%,103.068% and 102.123%,111.403% and 110.329%,113.398% and 109.795%,105.315% and 104.756%,2.50,0.36
O=C(Nc1cccc(-c2c[nH]c3ncnc(N4CCOCC4)c23)c1)C1(C(=O)Nc2ccc(F)c(Cl)c2)CC1 [Compound 18],152 ± 44,–,-12.1904% and -14.2894%,-3.604% and -4.745%,–,53.6603% and 67.7094%,89.4919% and 81.5068%,–,92.5361% and 84.907%,95.9241% and 92.0144%,91.7935% and 96.8386%,94.1994% and 95.2858%,3.41,0.66
